The test system of this data set is rodent carcinogenicity bioassays, tumor incidence. The data set is described as follows: CCRIS carcinogenicity studies. As to conditions: Dose: 0, Dose: 0. An outline of the steps:
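NCI-built, expert-reviewed records of carcinogenicity and related test outcomes (mutagenicity, tumor promotion/inhibition) compiled from published and report sources, historical span 1985-2011, not updated.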

Each structure is given as a SMILES string. Active and inactive are the calls of the source. No rule for the calls is given here.

For `OCCNCCO`, the carcinogen call (Species: MOUSE, Strain/Sex: B6C3F1/FEMALE, Route: DERMAL, 40, 80, 160 MG/KG BW IN ETHANOL 5 D/WK FOR 103 WK (STUDY DURATION: 103 WK), 40, 80, 160 MG/KG BW IN ETHANOL 5 D/WK FOR 103 WK (STUDY DURATION: 103 WK), Tumor Site: Type of Lesion: LIVER: HEPATOCELLULAR ADENOMA, HEPATOCELLULAR CARCINOMA, OR HEPATOBLASTOMA) was “active; positive”; the carcinogen call (Species: MOUSE, Strain/Sex: B6C3F1/MALE, Route: DERMAL, 40, 80, 160 MG/KG BW IN ETHANOL 5 D/WK FOR 103 WK (STUDY DURATION: 103 WK), 40, 80, 160 MG/KG BW IN ETHANOL 5 D/WK FOR 103 WK (STUDY DURATION: 103 WK), Tumor Site: Type of Lesion: LIVER: HEPATOCELLULAR ADENOMA, HEPATOCELLULAR CARCINOMA, OR HEPATOBLASTOMA) was “active; positive”; the carcinogen call (Species: RAT, Strain/Sex: F344/N/FEMALE, Route: DERMAL, 8, 16, 32 MG/KG BW IN ETHANOL 5 D/WK FOR 103 WK (STUDY DURATION: 103 WK), 8, 16, 32 MG/KG BW IN ETHANOL 5 D/WK FOR 103 WK (STUDY DURATION: 103 WK)) is “inactive; negative”; the carcinogen call (Species: RAT, Strain/Sex: F344/N/MALE, Route: DERMAL, 16, 32, 64 MG/KG BW IN ETHANOL 5 D/WK FOR 103 WK (STUDY DURATION: 103 WK), 16, 32, 64 MG/KG BW IN ETHANOL 5 D/WK FOR 103 WK (STUDY DURATION: 103 WK)) was “inactive; negative”.
`FC(F)OC(Cl)C(F)(F)F` (centres undefined): the carcinogen call (Species: MOUSE, Strain/Sex: SWISS/FEMALE, Route: INHALATION, 0.1, 0.4% IN AIR 4 HR/D 5 D/WK FOR 78 WK (STUDY DURATION: 81 WK), 0.1, 0.4% IN AIR 4 HR/D 5 D/WK FOR 78 WK (STUDY DURATION: 81 WK)) is “inactive; negative” and the carcinogen call (Species: MOUSE, Strain/Sex: SWISS/MALE, Route: INHALATION, 0.1, 0.4% IN AIR 4 HR/D 5 D/WK FOR 78 WK (STUDY DURATION: 81 WK), 0.1, 0.4% IN AIR 4 HR/D 5 D/WK FOR 78 WK (STUDY DURATION: 81 WK)) was “inactive; negative”.
`Nc1c(Cl)c(Cl)nc(C(=O)O)c1Cl`: the carcinogen call by setting is: (Species: MOUSE, Strain/Sex: B6C3F1/FEMALE, Route: ORAL, 2531, 5062 PPM IN DIET FOR 80 WK (STUDY DURATION: 90 WK), 2531, 5062 PPM IN DIET FOR 80 WK (STUDY DURATION: 90 WK)) “inactive; negative”; (Species: MOUSE, Strain/Sex: B6C3F1/MALE, Route: ORAL, 2531, 5062 PPM IN DIET FOR 80 WK (STUDY DURATION: 90 WK), 2531, 5062 PPM IN DIET FOR 80 WK (STUDY DURATION: 90 WK)) “inactive; negative”; (Species: RAT, Strain/Sex: F344/FEMALE, Route: ORAL, 20, 60, 200 MG/KG/D OF TECHNICAL GRADE PICLORAM IN FEED FOR 2 YR (STUDY DURATION: 2 YR), 20, 60, 200 MG/KG/D OF TECHNICAL GRADE PICLORAM IN FEED FOR 2 YR (STUDY DURATION: 2 YR)) “inactive; negative”; (Species: RAT, Strain/Sex: F344/MALE, Route: ORAL, 20, 60, 200 MG/KG/D OF TECHNICAL GRADE PICLORAM IN FEED FOR 2 YR (STUDY DURATION: 2 YR), 20, 60, 200 MG/KG/D OF TECHNICAL GRADE PICLORAM IN FEED FOR 2 YR (STUDY DURATION: 2 YR)) “inactive; negative”; (Species: RAT, Strain/Sex: OSBORNE-MENDEL/FEMALE, Route: ORAL, 7437, 14875 PPM IN DIET FOR 80 WK (STUDY DURATION: 113 WK), 7437, 14875 PPM IN DIET FOR 80 WK (STUDY DURATION: 113 WK), Tumor Site: Type of Lesion: LIVER: NEOPLASTIC NODULE) “equivocal”; (Species: RAT, Strain/Sex: OSBORNE-MENDEL/MALE, Route: ORAL, 7437, 14875 PPM IN DIET FOR 80 WK (STUDY DURATION: 113 WK), 7437, 14875 PPM IN DIET FOR 80 WK (STUDY DURATION: 113 WK)) “inactive; negative”.
For `O=C(CO)CO`, the carcinogen call (Species: MOUSE, Strain/Sex: SWISS/FEMALE, Route: DERMAL, 5, 40% AQUEOUS SOLUTION APPLIED 1/WK FOR 80 WK (STUDY DURATION: 80 WK), 5, 40% AQUEOUS SOLUTION APPLIED 1/WK FOR 80 WK (STUDY DURATION: 80 WK)) was “inactive; negative” and the carcinogen call (Species: MOUSE, Strain/Sex: SWISS/MALE, Route: DERMAL, 5%, 40% AQUEOUS SOLUTION APPLIED 1/WK FOR 80 WK (STUDY DURATION: 80 WK), 5%, 40% AQUEOUS SOLUTION APPLIED 1/WK FOR 80 WK (STUDY DURATION: 80 WK)) was “inactive; negative”.
Consider `O=[N+]([O-])c1cc([As](=O)(O)O)ccc1O`, for which the carcinogen call reads like this: (Species: MOUSE, Strain/Sex: B6C3F1/FEMALE, Route: ORAL, 100, 200 PPM IN FEED FOR 103 WK (STUDY DURATION: 105 WK), 100, 200 PPM IN FEED FOR 103 WK (STUDY DURATION: 105 WK)) “inactive; negative”; (Species: MOUSE, Strain/Sex: B6C3F1/MALE, Route: ORAL, 100, 200 PPM IN FEED FOR 103 WK (STUDY DURATION: 105 WK), 100, 200 PPM IN FEED FOR 103 WK (STUDY DURATION: 105 WK)) “inactive; negative”; (Species: RAT, Strain/Sex: F344/FEMALE, Route: ORAL, 50, 100 PPM IN FEED FOR 103 WK (STUDY DURATION: 104 WK), 50, 100 PPM IN FEED FOR 103 WK (STUDY DURATION: 104 WK)) “inactive; negative”; (Species: RAT, Strain/Sex: F344/MALE, Route: ORAL, 50, 100 PPM IN FEED FOR 103 WK (STUDY DURATION: 104 WK), 50, 100 PPM IN FEED FOR 103 WK (STUDY DURATION: 104 WK), Tumor Site: Type of Lesion: EXOCRINE PANCREAS: ADENOMA) “equivocal”.
As for `COP(=S)(OC)SCn1nnc2ccccc2c1=O`, the carcinogen call was “inactive; negative” (Species: MOUSE, Strain/Sex: B6C3F1/FEMALE, Route: ORAL, 62.5, 125 PPM IN DIET FOR 80 WK (STUDY DURATION: 92-93 WK), 62.5, 125 PPM IN DIET FOR 80 WK (STUDY DURATION: 92-93 WK)); “inactive; negative” (Species: MOUSE, Strain/Sex: B6C3F1/MALE, Route: ORAL, 31.3, 62.5 PPM IN DIET FOR 80 WK (STUDY DURATION: 92-93 WK), 31.3, 62.5 PPM IN DIET FOR 80 WK (STUDY DURATION: 92-93 WK)); “inactive; negative” (Species: RAT, Strain/Sex: OSBORNE-MENDEL/FEMALE, Route: ORAL, 62.5, 125 PPM IN DIET FOR 80 WK (STUDY DURATION: 114-115 WK), 62.5, 125 PPM IN DIET FOR 80 WK (STUDY DURATION: 114-115 WK)); “equivocal” (Species: RAT, Strain/Sex: OSBORNE-MENDEL/MALE, Route: ORAL, 78, 156 PPM IN DIET FOR 80 WK (STUDY DURATION: 114-115 WK), 78, 156 PPM IN DIET FOR 80 WK (STUDY DURATION: 114-115 WK), Tumor Site: Type of Lesion: THYROID GLAND: TUMOR, PANCREAS: ISLET CELL ADENOMA OR CARCINOMA); “inactive; negative; purity = 87.2%” (Species: Rat, Strain/Sex: Wistar/Female, Route: Oral, 15, 45 ppm (vehicle= 1% DAB8 peanut oil) in feed for 24 mo., 15, 45 ppm (vehicle= 1% DAB8 peanut oil) in feed for 24 mo.); “inactive; negative; purity = 87.2%” (Species: Rat, Strain/Sex: Wistar/Male, Route: Oral, 15, 45 ppm (vehicle= 1% DAB8 peanut oil) in feed for 24 mo., 15, 45 ppm (vehicle= 1% DAB8 peanut oil) in feed for 24 mo.).

The record behind these values is PubChem BioAssay AID1259411 (Chemical Carcinogenesis Research Information System (CCRIS), 2018).
